Columns and labels:
hNPCs = assay: hNPC attachment, proliferation and phenotype on co-assembled PA coatings (EdU, SOX-2, PAX6); assay type: cell-based, human
Description: Neural progenitor cells (NPCs) were differentiated from human embryonic stem cells HUES 64 (Harvard University) (see FIG. 2C). In short, 70% confluent stem cell cultures grown in Matrigel (Thermo Fisher) coated plates with mTESR medium (STEMCELL Technologies), were switched to N2B27 medium (50% DMEM: F12, 50% Neurobasal, supplemented with NEAA, Glutamax, N2 and B27; Gibco) containing dual SMAD inhibitors (SB431542, DNSK International and LDN-193189, Tocris) for 12 days to induce the generation of neural progenitors. Neuralization was enhanced by supplementing medium with laminin from day 5 to 12. Next, neural rosettes were dissociated with neural rosette selection reagent (STEMCELL Technologies) to obtain NPCs, which are expanded in N2B27 (Gibco) medium supplemented with bFGF (Millipore). For experimentation in the different PA platforms, NPCs were dissociated with Accutase (Innovative Cell technology), and cultured in the distinct platforms with DMEM: F12+N2+B27 medium with hyclone penicillin-streptomycin (GE Healthcare) and ascorbic acid (0.2 μg/mL; Sigma-Aldrich).
(§1) For IKVAV PA treatments, hNPCs were cultured on ornithine coatings (German Glass, Chemglass Life Science) in 6 well and 24 well plates at a density of 500,000 cells/well and 80,000 cells/well respectively. hNPCs were treated with […] of IKVAV PAs ([PA]=6 mM, [KCl]=3 mM, [NaCl]=150 mM) or recombinant laminin protein (10 mg/mL) in solution. IKVAV PA2 and IKVAV PA5 were also mixed with 5 mM CaCl2) at a ratio PA:CaCl2) 6:1 to treat hNPCs. For 2D experiments, hNPCs were cultured on the different IKVAV PAs or laminin coatings in 6 well and 24 well plates at densities mentioned above. For co-assembled experiments, hNPCs were cultured on the different co-assembled PA coatings in 6 well and 24 well plates at a density of 400,000 cells/well and 50,000 cells/well respectively.
(§2) hNPCs were fed 4 times a week with DMEM: F12+N2^+B27 medium with hyclone penicillin-streptomycin and ascorbic acid. After 24 h, 72 h 1- or 2-weeks in vitro, cell lysates were harvested or fixed for WB or ICC, respectively. Three replicates per condition and at least three independent experiments were carried out for all conditions investigated.
For the hNPCs proliferation assay, 2 μM of the thymidine analog 5-ethynyl-2′-deoxyuridine (EdU, Thermo Fisher) was incorporated into the culture medium for 24 h. Cells were fixed at the indicated time points in 4% paraformaldehyde (PFA) for 15 min at RT. After fixation, samples were washed in PBS twice and then stained with Click-iT™ EdU Cell Proliferation Kit containing 11 mM CuSO4 (from 50 mM stock) and 1 μg/mL of Alexa Fluor-555 azide (from 0.5 mg/mL, Thermo Fisher) for 30 minutes at RT in the dark. The staining cocktail was then removed, and cells were washed with PBS. Then, hNPCs were counterstained with anti-rabbit SOX-2 antibody following the immunofluorescence protocol described below and 4′, 6-diamidino-2-phenylindole (DAPI, Thermo Fisher) at 5 μg/mL in PBS for 20 min at RT. The cells were then washed with PBS and mounted with Immu-Mount (Fisher Scientific) for imaging.
For immunofluorescence, fixed primary cultures or free-floating tissue sections (40 m Thick) were incubated in blocking buffer containing 0.02% Triton-X (Sigma-Aldrich), 1% NHS (Gibco) and PBS 1× (Gibco). Samples were incubated with primary antibodies over night at 4° C. Alexa-488, Alexa-555 and/or Alexa-647 (1:500, Thermofisher) were used as secondary antibodies. DAPI (1:500, Thermofisher) was used to stain nuclei. […]

FGFR1 and ITGB1 = target: T1, FGFR1 and ITGB1 (Homo sapiens, UniProt P11362); assay: p-FGFR1 and active ITGB1 in hNPCs on co-assembled PA coatings (WB); assay type: cell-based
T1 construct: endogenous in cells; host or cells: hNPCs differentiated from human embryonic stem cells HUES 64, seeded on co-assembled PA coatings
T1 sequence (P11362 22-822): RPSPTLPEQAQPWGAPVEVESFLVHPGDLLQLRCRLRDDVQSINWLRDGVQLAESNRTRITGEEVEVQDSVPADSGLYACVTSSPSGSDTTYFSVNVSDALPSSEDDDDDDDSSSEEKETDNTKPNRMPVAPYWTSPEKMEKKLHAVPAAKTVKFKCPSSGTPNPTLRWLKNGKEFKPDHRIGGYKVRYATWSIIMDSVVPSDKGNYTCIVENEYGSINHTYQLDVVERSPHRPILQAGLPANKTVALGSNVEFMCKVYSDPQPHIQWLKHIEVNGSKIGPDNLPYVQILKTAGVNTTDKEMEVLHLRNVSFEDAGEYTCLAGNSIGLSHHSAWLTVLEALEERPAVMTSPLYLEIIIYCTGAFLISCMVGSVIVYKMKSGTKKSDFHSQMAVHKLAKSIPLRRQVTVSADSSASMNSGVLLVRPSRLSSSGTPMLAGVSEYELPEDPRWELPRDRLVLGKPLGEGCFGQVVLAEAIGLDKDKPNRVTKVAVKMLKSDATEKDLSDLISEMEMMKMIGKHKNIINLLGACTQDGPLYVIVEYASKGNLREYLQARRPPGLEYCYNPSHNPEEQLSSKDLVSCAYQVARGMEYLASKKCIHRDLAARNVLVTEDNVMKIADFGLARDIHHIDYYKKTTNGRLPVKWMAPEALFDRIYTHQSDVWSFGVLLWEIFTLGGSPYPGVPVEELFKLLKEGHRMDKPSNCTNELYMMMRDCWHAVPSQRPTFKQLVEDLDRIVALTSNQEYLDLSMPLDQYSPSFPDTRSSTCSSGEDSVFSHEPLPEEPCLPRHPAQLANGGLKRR
Method: as §1, §2
(§3) RIPA buffer (Thermofisher) with a cocktail of Halt Protease and Phosphatase Inhibitors (Thermofisher) was used to extract protein from in vitro and in vivo samples. For in vivo studies, spinal cord tissue was then sonicated using a horn sonicator (Branson) to break up the tissue. […]

FGFR1 = target: T2, FGFR1 (Homo sapiens, UniProt P11362); assay: FGF-2 intracellular signaling pathway in HUVECs (WB p-FGFR1, p-ERK1/2); assay type: cell-based
T2 construct: host or cells: HUVECs (pooled donor)
T2 sequence (P11362 22-822): as above
Method: (§4) Human umbilical vein cord (HUVECs) (pooled donor, LONZA, Allendale, New Jersey) were grown to 70-80% confluence for each experiment (P2-P4) in a T-75 cell culture flask using complete media (Endo GRO-VEGF Complete Culture Media Kit, Millipore) supplemented with 1% penicillin-streptomycin. Media was changed every 3 days.
Treatments were prepared by dissolving the co-assembled PAs in media without serum. The total concentration of FGF2 PAs per treatment was 0.5 μM. FGF-2 native protein (Peprotech) was resuspended and used at 0.25 nM. For western blot experiments, HUVEC were cultured in 12 well plates at a density of approximately 150,000 cells/well for 2 days in vitro before being treated. Treatments were added for 2 h-2 days in vitro before cell lysates were harvested or cells were fixed. For PA coatings, PAs were painted on the coverslips (German Glass, Chemglass Life Science) or tissue culture plates as described in the Co-assembled PA preparation section. Three replicates per condition and three independent experiments were carried out for all conditions investigated.
as §3

[1] = tested on: human umbilical vein vascular endothelial cells (HUVECs); assay: HUVEC branching / capillary network formation; assay type: cell-based; conditions: within 48 h of culture
Method: as §4
Treatments were prepared by dissolving the co-assembled PAs in media without serum. The total concentration of FGF2 PAs per treatment was 0.5 μM. FGF-2 native protein (Peprotech) was resuspended and used at 0.25 nM. For western blot experiments, HUVEC were cultured in 12 well plates at a density of approximately 150,000 cells/well for 2 days in vitro before being treated. Treatments were added for 2 h-2 days in vitro before cell lysates were harvested or cells were fixed. […]
To assess in vitro tubulogenesis and in vivo angiogenesis, an ImageJ (Fiji) script was established to automatically calculate 1) area fraction of blood vessels, 2) blood vessels length, and 3) number of branches. Images were processed, binarized and analyzed. Newly generated blood vessels in vivo were identified by quantifying the amount of CD31/BrdU double-positive cells within the region of interest. […] The quantified cross sections were chosen as the first serial cross sections within the lesion that had DiI staining.

native FGF-2: FGF-2 native protein (Peprotech), positive control
percentage of proliferating EdU+ and SOX2+ cells (hNPCs): increased | P-FGFR-1 expression (FGFR1 and ITGB1): highly expressed | levels of p-FGFR1 and downstream p-ERK1/2 (FGFR1): high levels | branching and vessel-like capillary network formation [1]: extensive branching and formation of vessel-like capillary networks
